Results on 23 molecules are retold here after ChEMBL document CHEMBL1129845, “Digitalis-like compounds: Synthesis and biological evaluation of 3-(aminoalkylthio) derivatives” (Bioorg Med Chem Lett, 1997).

The source made the active and inactive calls. No cut-off for these calls is given here.

Biological target in the first test: not listed separately
The experiment in a line: Displacement of [3H]ouabain binding from Na+,K+ -ATPase receptor isolated from dog kidney. Details: species or system Canis lupus familiaris. In general terms: Displacement assays read how much labelled ligand stays bound in the presence of the test substance.
As to `C[C@]12CC[C@H](SCCN)C[C@H]1CC[C@@H]1[C@@H]2CC[C@]2(C)[C@@H](C3=CC(=O)OC3)CC[C@]12O`, the “-Log IC50” value was determined as 7.5. Same read-out and setting: for `C[C@]12CC[C@H](SCCCN)C[C@H]1CC[C@@H]1[C@@H]2CC[C@]2(C)[C@@H](C3=CC(=O)OC3)CC[C@]12O` the value was 7.1; for `C[C@]12CC[C@H](O)C[C@H]1CC[C@@H]1[C@@H]2CC[C@]2(C)[C@@H](C3=CC(=O)OC3)CC[C@@H]12`, 5.2. For `C[C@]12CC[C@H](SCCCN)C[C@H]1CC[C@@H]1[C@@H]2CC[C@]2(C)[C@@H]([C@H]3COC(=O)C3)CC[C@]12O`, the “-Log IC50” value is recorded as 6.5.

`C[C@]12CC[C@H](S)C[C@H]1CC[C@@H]1[C@@H]2CC[C@]2(C)[C@@H](C3=CC(=O)OC3)C[C@H]3O[C@]132`: the “-Log IC50” value was 5.6. As to `C[C@]12CC[C@H](SCCCN)C[C@H]1CC[C@@H]1[C@@H]2CC[C@]2(C)[C@@H]([C@@H]3COC(=O)C3)CC[C@]12O`, the “-Log IC50” value was found to be 6.5. Turning to `C[C@]12CC[C@H](SCCCN3CCCC3)C[C@H]1CC[C@@H]1[C@@H]2CC[C@]2(C)[C@@H](C3=CC(=O)OC3)CC[C@]12O`, the “-Log IC50” value is given as 6.8.

Take `C[C@]12CC[C@H](S)C[C@H]1CC[C@@H]1[C@@H]2CC[C@]2(C)[C@@H]([C@H]3COC(=O)C3)CC[C@]12O`: the “-Log IC50” value is on record as 5.5. `C[C@]12CCC3C(CC[C@@H]4C[C@@H](SCCCN)CC[C@]34C)C1=CC[C@@H]2C1=CC(=O)OC1` (stereo partly drawn): the “-Log IC50” value was determined as 5.8.

Take `C[C@]12CC[C@H](SCCN3CCCC3)C[C@H]1CC[C@@H]1[C@@H]2CC[C@]2(C)[C@@H](C3=CC(=O)OC3)CC[C@]12O`: the “-Log IC50” value stood at 6.7. `C[C@]12CC[C@H](S)C[C@H]1CC[C@@H]1[C@@H]2CC[C@]2(C)[C@@H](C3=CC(=O)OC3)CC[C@]12O`: the “-Log IC50” value is recorded as 6. With `C[C@]12CC[C@H](O)C[C@H]1CC[C@@H]1[C@@H]2CC[C@]2(C)[C@@H](C3=CC(=O)OC3)CC[C@]12O` [DIGITOXIGENIN], the “-Log IC50” value is recorded as 7.2.

In the case of `CN(C)CCCS[C@H]1CC[C@@]2(C)[C@H](CC[C@@H]3[C@@H]2CC[C@]2(C)[C@@H](C4=CC(=O)OC4)CC[C@]32O)C1`, the “-Log IC50” value is 7. Consider `C[C@]12CC[C@H](SCC[N+](C)(C)C)C[C@H]1CC[C@@H]1[C@@H]2CC[C@]2(C)[C@@H](C3=CC(=O)OC3)CC[C@]12O`, for which the “-Log IC50” value is on record as 7. Take `C[C@]12CC[C@H](O)C[C@H]1CC[C@@H]1[C@@H]2CC[C@]2(C)[C@@H]([C@H]3COC(=O)C3)CC[C@]12O`: the “-Log IC50” value came out at 5.8. Take `C[C@]12CC[C@H](SCCCN3CCNCC3)C[C@H]1CC[C@@H]1[C@@H]2CC[C@]2(C)[C@@H](C3=CC(=O)OC3)CC[C@]12O`: the “-Log IC50” value is 6.5. Still for that read-out and setting: for `C[C@]12CC[C@H](SCCCN)C[C@H]1CC[C@@H]1[C@@H]2CC[C@]2(C)[C@@H](C3=CC(=O)OC3)C[C@H]3O[C@]132` the value was 6.6; for `C[C@]12CCC3C(CC[C@@H]4C[C@@H](O)CC[C@]34C)C1=CC[C@@H]2C1=CC(=O)OC1` (stereo partly drawn), 5.5.

Consider `C[C@]12CC[C@H](O)C[C@H]1CC[C@@H]1[C@@H]2CC[C@]2(C)[C@@H](C3=CC(=O)OC3)C[C@H]3O[C@]132`, for which the “-Log IC50” value is on record as 6.6. On to `C[C@]12CC[C@H](SCCCN)C[C@H]1CC[C@@H]1[C@@H]2CC[C@]2(C)[C@@H](C3=CC(=O)OC3)CC[C@@H]12`, for which the “-Log IC50” value was 5.8. As to `C[C@]12CC[C@H](S)C[C@H]1CC[C@@H]1[C@@H]2CC[C@]2(C)[C@@H]([C@@H]3COC(=O)C3)CC[C@]12O`, the “-Log IC50” value is 5. Same read-out and setting: for `C[C@]12CC[C@H](O)C[C@H]1CC[C@@H]1[C@@H]2CC[C@]2(C)[C@@H]([C@@H]3COC(=O)C3)CC[C@]12O` the value was 5.6.

The next test is filed under the species Canis lupus familiaris. As to the kind of experiment: Displacement of [3H]ouabain binding to Na+,K+ -ATPase receptor isolated from dog kidney; NA = <50% displacement at 10e-5 M.
Take `C[C@]12CC[C@H](S)C[C@H]1CC[C@@H]1[C@@H]2CC[C@]2(C)[C@@H](C3=CC(=O)OC3)CC[C@@H]12`: the “-Log IC50” value was “inactive”.
